Laboratory results taken from the kinase profiling compilation of Christmann-Franck et al. (2016).

Columns and labels:
Experiment in all cases: KINOMEscan competition binding
Settings in all cases: compound 10.0 µM
MKNK1 (human) = MKNK1 (human) (UniProt Q9BUB5)
PIK3CA (human) = PIK3CA (human) (UniProt P42336)
PAK2 (human) = PAK2 (human) (UniProt Q13177)
CSNK1D (human) = CSNK1D (human) (UniProt P48730)
MST1R (human) = MST1R (human) (UniProt Q04912)
CDK14 (human) = CDK14 (human) (UniProt O94921)
CDKL3 (human) = CDKL3 (human) (UniProt Q8IVW4)
Chain of CDKL3 (human) (Q8IVW4 whole entry, looked up): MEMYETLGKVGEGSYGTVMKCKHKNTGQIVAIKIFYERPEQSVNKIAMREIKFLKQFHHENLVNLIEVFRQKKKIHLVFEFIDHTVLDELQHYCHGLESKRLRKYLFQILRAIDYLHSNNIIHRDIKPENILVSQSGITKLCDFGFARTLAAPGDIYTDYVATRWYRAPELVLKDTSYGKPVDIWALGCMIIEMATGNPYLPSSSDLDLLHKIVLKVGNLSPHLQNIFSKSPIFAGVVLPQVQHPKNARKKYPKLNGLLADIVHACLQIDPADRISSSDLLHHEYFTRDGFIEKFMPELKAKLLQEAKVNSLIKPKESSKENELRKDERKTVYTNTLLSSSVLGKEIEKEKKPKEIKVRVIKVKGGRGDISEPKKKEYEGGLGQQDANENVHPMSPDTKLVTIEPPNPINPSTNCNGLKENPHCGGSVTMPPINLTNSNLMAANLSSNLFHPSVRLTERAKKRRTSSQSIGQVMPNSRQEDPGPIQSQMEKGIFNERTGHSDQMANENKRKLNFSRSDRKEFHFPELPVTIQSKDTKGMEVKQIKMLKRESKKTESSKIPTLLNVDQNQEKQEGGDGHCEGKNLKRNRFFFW

CDK16 (human) = CDK16 (human) (UniProt Q00536)
CDK18 (human) = CDK18 (human) (UniProt Q07002)
CDKL2 (human) = CDKL2 (human) (UniProt Q92772)
LATS2 (human) = LATS2 (human) (UniProt Q9NRM7)
RPS6KA2 KD1 (human) = RPS6KA2 KD1 (human) (UniProt Q15349)
CDK8 (human) = CDK8 (human) (UniProt P49336)
PAK3 (human) = PAK3 (human) (UniProt O75914)
Chain of PAK3 (human) (O75914 whole entry, looked up): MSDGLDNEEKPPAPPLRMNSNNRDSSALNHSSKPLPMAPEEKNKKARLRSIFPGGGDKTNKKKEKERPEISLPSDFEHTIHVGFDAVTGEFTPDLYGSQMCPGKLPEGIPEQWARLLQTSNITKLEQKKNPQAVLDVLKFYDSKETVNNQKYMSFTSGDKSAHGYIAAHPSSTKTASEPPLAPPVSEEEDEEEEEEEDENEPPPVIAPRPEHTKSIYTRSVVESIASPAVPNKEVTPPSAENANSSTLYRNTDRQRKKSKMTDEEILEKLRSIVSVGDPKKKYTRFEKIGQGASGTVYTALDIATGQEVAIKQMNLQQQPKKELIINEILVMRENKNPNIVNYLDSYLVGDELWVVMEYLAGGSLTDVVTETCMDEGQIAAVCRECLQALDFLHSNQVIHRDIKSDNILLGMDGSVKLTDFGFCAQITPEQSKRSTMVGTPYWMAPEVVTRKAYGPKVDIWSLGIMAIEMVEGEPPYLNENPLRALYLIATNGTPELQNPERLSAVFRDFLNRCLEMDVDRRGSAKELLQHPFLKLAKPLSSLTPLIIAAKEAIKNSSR

SRPK1 (human) = SRPK1 (human) (UniProt Q96SB4)
KDR (human) = KDR (human) (UniProt P35968)
PDPK1 (human) = PDPK1 (human) (UniProt O15530)
PRPF4B (human) = PRPF4B (human) (UniProt Q13523)
GSK3A (human) = GSK3A (human) (UniProt P49840)
CDC42BPB (human) = CDC42BPB (human) (UniProt Q9Y5S2)
Chain of CDC42BPB (human) (Q9Y5S2 whole entry, looked up): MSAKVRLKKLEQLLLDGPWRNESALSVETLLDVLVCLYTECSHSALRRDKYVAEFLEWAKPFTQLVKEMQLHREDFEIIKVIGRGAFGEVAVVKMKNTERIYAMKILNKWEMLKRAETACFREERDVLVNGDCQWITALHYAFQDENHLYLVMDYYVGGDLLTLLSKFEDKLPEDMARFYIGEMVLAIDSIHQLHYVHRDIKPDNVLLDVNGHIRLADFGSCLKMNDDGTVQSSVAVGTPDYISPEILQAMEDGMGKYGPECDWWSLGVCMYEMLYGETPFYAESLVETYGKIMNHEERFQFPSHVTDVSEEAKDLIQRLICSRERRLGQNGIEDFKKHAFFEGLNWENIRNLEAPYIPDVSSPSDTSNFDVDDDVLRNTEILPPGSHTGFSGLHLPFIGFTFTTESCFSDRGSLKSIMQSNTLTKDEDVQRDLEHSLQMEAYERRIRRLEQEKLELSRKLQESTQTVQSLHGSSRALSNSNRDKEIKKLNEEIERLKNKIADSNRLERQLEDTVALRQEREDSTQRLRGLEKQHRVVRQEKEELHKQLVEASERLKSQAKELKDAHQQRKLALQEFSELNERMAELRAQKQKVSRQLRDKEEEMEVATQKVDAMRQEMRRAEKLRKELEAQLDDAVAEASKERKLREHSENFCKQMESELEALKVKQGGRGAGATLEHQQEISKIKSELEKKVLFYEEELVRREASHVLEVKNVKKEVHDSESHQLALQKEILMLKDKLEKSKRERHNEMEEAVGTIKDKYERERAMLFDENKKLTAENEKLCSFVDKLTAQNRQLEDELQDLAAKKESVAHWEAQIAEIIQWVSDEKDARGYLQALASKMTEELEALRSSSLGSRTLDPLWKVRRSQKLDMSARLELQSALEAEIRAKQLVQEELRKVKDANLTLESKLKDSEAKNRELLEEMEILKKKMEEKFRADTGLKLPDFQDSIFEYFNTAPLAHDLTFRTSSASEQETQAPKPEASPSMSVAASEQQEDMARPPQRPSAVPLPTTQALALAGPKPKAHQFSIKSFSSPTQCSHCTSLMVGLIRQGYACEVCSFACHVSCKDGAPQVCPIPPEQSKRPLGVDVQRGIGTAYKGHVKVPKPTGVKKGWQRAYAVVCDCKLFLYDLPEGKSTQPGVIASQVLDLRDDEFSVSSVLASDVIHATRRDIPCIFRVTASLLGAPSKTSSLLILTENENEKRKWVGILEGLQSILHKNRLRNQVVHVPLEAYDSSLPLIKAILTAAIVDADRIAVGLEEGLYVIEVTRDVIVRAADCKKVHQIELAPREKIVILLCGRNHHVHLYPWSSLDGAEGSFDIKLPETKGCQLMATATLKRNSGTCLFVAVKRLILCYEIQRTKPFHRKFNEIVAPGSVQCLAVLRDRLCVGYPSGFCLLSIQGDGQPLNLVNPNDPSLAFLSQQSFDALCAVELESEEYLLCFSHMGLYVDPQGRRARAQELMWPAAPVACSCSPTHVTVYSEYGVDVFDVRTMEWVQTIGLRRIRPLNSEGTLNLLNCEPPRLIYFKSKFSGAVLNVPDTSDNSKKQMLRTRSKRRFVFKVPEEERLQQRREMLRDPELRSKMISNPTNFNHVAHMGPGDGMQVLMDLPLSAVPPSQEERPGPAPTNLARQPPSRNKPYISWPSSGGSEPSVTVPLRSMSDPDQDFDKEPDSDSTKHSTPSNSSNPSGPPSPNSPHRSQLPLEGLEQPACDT

TLK2 (human) = TLK2 (human) (UniProt Q86UE8)
PIK3C2B (human) = PIK3C2B (human) (UniProt O00750)
PRKG2 (human) = PRKG2 (human) (UniProt Q13237)
CDK11B (human) = CDK11B (human) (UniProt P21127)
CIT (human) = CIT (human) (UniProt O14578)
DCLK2 (human) = DCLK2 (human) (UniProt Q8N568)
STK38 (human) = STK38 (human) (UniProt Q15208)
MAPK13 (human) = MAPK13 (human) (UniProt O15264)
EGFR (human) = EGFR (human) (UniProt P00533)
CSNK1A1 (human) = CSNK1A1 (human) (UniProt P48729)
CSNK1G1 (human) = CSNK1G1 (human) (UniProt Q9HCP0)
EIF2AK1 (human) = EIF2AK1 (human) (UniProt Q9BQI3)
STK25 (human) = STK25 (human) (UniProt O00506)
IKBKB (human) = IKBKB (human) (UniProt O14920)
STK11 (human) = STK11 (human) (UniProt Q15831)
STK38L (human) = STK38L (human) (UniProt Q9Y2H1)
ROCK2 (human) = ROCK2 (human) (UniProt O75116)
MINK1 (human) = MINK1 (human) (UniProt Q8N4C8)
LYN (human) = LYN (human) (UniProt P07948)
ULK2 (human) = ULK2 (human) (UniProt Q8IYT8)
Chain of ULK2 (human) (Q8IYT8 whole entry, looked up): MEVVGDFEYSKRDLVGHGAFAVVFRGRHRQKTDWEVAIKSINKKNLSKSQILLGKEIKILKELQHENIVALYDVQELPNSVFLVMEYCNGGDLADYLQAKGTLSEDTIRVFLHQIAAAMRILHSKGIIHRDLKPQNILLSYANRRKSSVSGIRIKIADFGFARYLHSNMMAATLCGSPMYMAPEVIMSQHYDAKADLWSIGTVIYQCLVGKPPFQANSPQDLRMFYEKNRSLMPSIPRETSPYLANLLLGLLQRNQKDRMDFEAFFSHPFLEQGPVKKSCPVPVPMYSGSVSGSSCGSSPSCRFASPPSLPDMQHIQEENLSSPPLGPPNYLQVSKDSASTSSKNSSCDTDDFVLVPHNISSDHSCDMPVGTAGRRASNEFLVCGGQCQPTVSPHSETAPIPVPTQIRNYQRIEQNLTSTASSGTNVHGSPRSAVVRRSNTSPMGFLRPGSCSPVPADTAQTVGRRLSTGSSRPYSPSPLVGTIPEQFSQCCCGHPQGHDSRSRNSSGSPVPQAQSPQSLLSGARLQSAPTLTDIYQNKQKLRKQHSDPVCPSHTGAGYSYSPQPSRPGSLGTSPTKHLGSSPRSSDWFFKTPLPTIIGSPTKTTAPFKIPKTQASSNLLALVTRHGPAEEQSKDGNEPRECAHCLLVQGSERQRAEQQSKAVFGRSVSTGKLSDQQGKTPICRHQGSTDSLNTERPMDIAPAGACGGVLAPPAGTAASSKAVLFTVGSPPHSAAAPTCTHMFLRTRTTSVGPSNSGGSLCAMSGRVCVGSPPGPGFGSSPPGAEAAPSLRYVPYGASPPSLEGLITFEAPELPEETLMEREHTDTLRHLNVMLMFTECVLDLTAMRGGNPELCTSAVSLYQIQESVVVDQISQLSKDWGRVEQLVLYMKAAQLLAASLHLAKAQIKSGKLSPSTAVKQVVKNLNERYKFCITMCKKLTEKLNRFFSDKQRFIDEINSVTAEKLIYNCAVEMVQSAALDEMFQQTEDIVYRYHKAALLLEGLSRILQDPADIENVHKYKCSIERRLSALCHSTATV

Chain of CSNK1D (human) (P48730 whole entry, looked up): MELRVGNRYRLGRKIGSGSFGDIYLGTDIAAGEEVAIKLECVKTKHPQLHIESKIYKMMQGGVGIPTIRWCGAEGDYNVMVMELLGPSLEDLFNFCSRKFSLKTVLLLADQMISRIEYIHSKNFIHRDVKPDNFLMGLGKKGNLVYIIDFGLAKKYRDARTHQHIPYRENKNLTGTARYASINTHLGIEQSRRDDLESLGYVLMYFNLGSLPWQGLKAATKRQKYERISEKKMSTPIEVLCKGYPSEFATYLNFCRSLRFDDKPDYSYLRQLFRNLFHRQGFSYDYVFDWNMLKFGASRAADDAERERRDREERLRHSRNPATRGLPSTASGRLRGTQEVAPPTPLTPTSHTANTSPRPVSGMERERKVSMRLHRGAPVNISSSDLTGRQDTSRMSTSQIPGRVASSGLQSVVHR
Chain of MKNK1 (human) (Q9BUB5 whole entry, looked up): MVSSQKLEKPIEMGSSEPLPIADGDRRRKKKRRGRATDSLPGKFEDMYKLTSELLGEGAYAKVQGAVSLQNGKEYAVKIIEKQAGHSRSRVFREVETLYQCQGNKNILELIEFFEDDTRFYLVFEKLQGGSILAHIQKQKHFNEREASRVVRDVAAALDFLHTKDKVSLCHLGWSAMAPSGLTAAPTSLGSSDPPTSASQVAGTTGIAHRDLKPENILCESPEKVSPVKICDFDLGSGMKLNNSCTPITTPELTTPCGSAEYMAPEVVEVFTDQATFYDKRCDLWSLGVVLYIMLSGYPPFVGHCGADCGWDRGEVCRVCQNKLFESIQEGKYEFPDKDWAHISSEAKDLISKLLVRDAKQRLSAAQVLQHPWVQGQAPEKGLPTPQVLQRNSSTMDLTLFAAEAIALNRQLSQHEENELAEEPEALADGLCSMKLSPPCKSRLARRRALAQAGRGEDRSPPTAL

SMILES: NC(=O)Nc1cc(-c2cccc(F)c2)sc1C(=O)N[C@@H]1CCCNC1
- kinase still bound, per cent of control (MKNK1 (human)): 6%
- kinase still bound, per cent of control (PIK3CA (human)): 100%
- kinase still bound, per cent of control (PAK2 (human)): 16%
- kinase still bound, per cent of control (CSNK1D (human)): 15%
- kinase still bound, per cent of control (MST1R (human)): 12%
- kinase still bound, per cent of control (CDK14 (human)): 100%
- kinase still bound, per cent of control (CDKL3 (human)): 100%
- kinase still bound, per cent of control (CDK16 (human)): 79%
- kinase still bound, per cent of control (CDK18 (human)): 100%
- kinase still bound, per cent of control (CDKL2 (human)): 60%
- kinase still bound, per cent of control (LATS2 (human)): 2%
- kinase still bound, per cent of control (RPS6KA2 KD1 (human)): 5%
- kinase still bound, per cent of control (CDK8 (human)): 71%
- kinase still bound, per cent of control (PAK3 (human)): 0.5%
- kinase still bound, per cent of control (SRPK1 (human)): 1.4%
- kinase still bound, per cent of control (KDR (human)): 0.05%
- kinase still bound, per cent of control (PDPK1 (human)): 0.7%
- kinase still bound, per cent of control (PRPF4B (human)): 7.4%
- kinase still bound, per cent of control (GSK3A (human)): 100%
- kinase still bound, per cent of control (CDC42BPB (human)): 74%
- kinase still bound, per cent of control (TLK2 (human)): 1.9%
- kinase still bound, per cent of control (PIK3C2B (human)): 16%
- kinase still bound, per cent of control (PRKG2 (human)): 0.5%
- kinase still bound, per cent of control (CDK11B (human)): 100%
- kinase still bound, per cent of control (CIT (human)): 0.2%
- kinase still bound, per cent of control (DCLK2 (human)): 2.4%
- kinase still bound, per cent of control (STK38 (human)): 4%
- kinase still bound, per cent of control (MAPK13 (human)): 100%
- kinase still bound, per cent of control (EGFR (human)): 0.25%
- kinase still bound, per cent of control (CSNK1A1 (human)): 0.5%
- kinase still bound, per cent of control (CSNK1G1 (human)): 7.6%
- kinase still bound, per cent of control (EIF2AK1 (human)): 88%
- kinase still bound, per cent of control (STK25 (human)): 0%
- kinase still bound, per cent of control (IKBKB (human)): 2.5%
- kinase still bound, per cent of control (STK11 (human)): 4.8%
- kinase still bound, per cent of control (STK38L (human)): 0%
- kinase still bound, per cent of control (ROCK2 (human)): 0.2%
- kinase still bound, per cent of control (MINK1 (human)): 1.6%
- kinase still bound, per cent of control (LYN (human)): 0.65%
- kinase still bound, per cent of control (ULK2 (human)): 0%
